Test results reported in patent US9060514B2, “Efficacy-enhancing agent composition for agricultural chemicals” (priority 2010, dated 2015).

Experiment: Flash point of solvents
Assay type: physicochemical
Conditions: measured with Cleveland open cup tester or value from 15509 chemical products
From the text: A flash point was a measured value (with a Cleveland open cup flashpoint tester or a value described in “15509 no Kagaku Seihin (15509 chemical products)” (2009, Jan., 27, Chemical Daily Co., Ltd.). Among solvents used in Comparative Examples, for those having a structure corresponding to the formula (C1), meanings of items in the formula (C1) were shown for convenience.

With `CCCCC(CC)CO` (stereo not drawn) [2-ethyl-l-hexanol] as the compound, how does the Flash point read?
Its Flash point is 78 °C.

For `COCCOCCOC` [Diethylene glycol dimethyl ether], which Flash point is on record?
Its Flash point is 56 °C.

Which Flash point does the source give for `CCCCC(CC)COCCOCCO` (stereo not drawn) [Diethylene glycol mono2-ethylhexyl ether] here?
The Flash point was 151 °C.

Which Flash point does the source give for `OCCOCCO` [Diethylene glycol] here?
The Flash point was 138 °C.

Which Flash point does the source give for `CCCCOCCOCCOCCCC` [Diethyleneglycol dibutyl ether] here?
Its Flash point is 122 °C.

For `C[S+](C)[O-]` [Dimethylsulfoxide], which Flash point is on record?
The Flash point was 95 °C.

With `CCOCCOCCO` [Ethyl carbitol] as the compound, how does the Flash point read?
Its Flash point is 102 °C.

For `OCCO` [Ethylene glycol], which Flash point is on record?
The Flash point was 120 °C.

For `CC(C)CO` [Isobutanol], which Flash point is on record?
Its Flash point is 28 °C.

For `CC(C)O` [Isopropanol], which Flash point is on record?
Its Flash point is 12 °C.

For `COCCOCCO` [Methyl carbitol], which Flash point is on record?
The Flash point was 105 °C.

For `COCCO` [Methyl cellosolve], which Flash point is on record?
Its Flash point is 39 °C.

With `COCC(C)O` (stereo not drawn) [Propylene glycol monomethyl ether] as the compound, how does the Flash point read?
Its Flash point is 32 °C.

With `CC(O)CO` (stereo not drawn) [Propylene glycol] as the compound, how does the Flash point read?
The Flash point was 99 °C.

Which Flash point does the source give for `CCCCOCCOCCO` [n-Butyl carbitol] here?
Its Flash point is 120 °C.
